Assay results reported in patent US8278359B2, “Compositions containing amines and use thereof to treat acne or reduce the appearance of oil or pores on the skin” (Johnson & Johnson Consumer Companies, Inc., priority 2005, dated 2012).
Marks after values point to notes of the source that are not given here.

What was measured:
[1] = tested on: IL-1A; assay: UV-induced IL-1A release on reconstituted epidermis (EPI 200 HCF epidermal equivalents); assay type: cell-based, human; settings: 0.5% w/v topical
Procedure: The effect of diamines was evaluated for topical anti-inflammatory activity on human epidermal equivalents. Epidermal equivalents (EPI 200 HCF), multilayer and differentiated epidermis consisting of normal, human epidermal keratinocytes, were purchased from MatTek (Ashland, Mass.). Upon receipt, epidermal equivalents were incubated for 24 hours at 37° C. in maintenance medium without hydrocortisone. Equivalents were topically treated (2 mg/cm^2) with compounds in 70% ethanol/30% propylene glycol vehicle at the indicated concentration 2 hours before exposure to solar ultraviolet light (1000 W-Oriel solar simulator equipped with a 1-mm Schott WG 320 filter; UV dose applied: 70 kJ/m^2 as measured at 360 nm). Equivalents were incubated for 24 hours at 37° C. with maintenance medium then supernatants were analyzed for IL-1A cytokine release using commercially available kits (Upstate Biotechnology, Charlottesville, Va.).

[2] = tested on: B16 cells; assay: Induction of pigmentation in vitro, DOPA staining; assay type: cell-based, murine; settings: pH 7.2, 48 hours
Procedure: THPED was tested for its effect on pigmentation, using melanocytes, DOPA staining and computerized image analysis. THPED was obtained from BASF (Florham Park, N.J.). THPED was dissolved in culture medium and pH was adjusted to neutral (pH 7.2). THPED was assayed at concentrations ranging from 0.05-0.01%.
B16 cells (a murine melanoma cell line) were obtained from American Type Culture Collection (Manassas, Va.). Cells were cultured in Dulbecco's Modified Eagle Medium (DMEM) containing 10% fetal bovine serum (FBS), 4.5 mg/ml glucose, 2 mM L-glutamine, sodium pyruvate, without phenol red (Invitrogen, Carlsbad, Calif.). B16 cells were plated on 12 well tissue culture plates (Corning Costar, San Diego, Calif.), at 40,000 cells per well in the above culture media. Cells were allowed to grow overnight and then treated with various concentrations of THPED at pH 7.2 for total 48 hours. Fresh media containing the experimental treatments were changed once daily.
At the end of the treatment, the cells were washed for 5 minutes, twice, in phosphate-buffered saline (PBS, from Life Technologies, Gaithersburg, Md.), then briefly fixed in 10% buffered formalin (from Sigma St. Louis, Mo.) for 10 minutes, washed three times with PBS and stained with 0.1% L-3,4-Dihydroxyphenylalanine (DOPA, from Sigma, St. Louis, Mo.) in PBS for 2-3 hours at 37° C., followed by three PBS washes. DOPA is a substrate for tyrosinase; therefore an increase in staining represents increased tyrosinase activity and pigment production. Images of DOPA-stained cells were taken using a Leica DMIL microscope (Bannockburn, Ill.) and an OPTRONICS DEI-750 digital camera (Goleta, Calif.). All images were obtained and analyzed with Image Pro Plus 4.0 software (Media Cybernetics, Silver Spring, Md.).
The pigment change was evaluated using the scale defined in Table XII.

[3] = tested on: facial skin pores; assay: Clinical study: reduction of pore size on facial skin, parallel-polarized image analysis; assay type: in vivo, human; settings: composition containing 2.5% THPED, 45 minutes
Text: A composition containing 2.5% THPED was compared to a corresponding placebo composition for the reduction of pore size on facial skin. 31 subjects were enrolled in the study, with all of the subjects completing the protocol. Table XVII discloses the formulation of the two compositions.
About 0.45-0.52 g of each composition was applied on one side of the face for each subject and allowed to dry. Each composition was applied only once to the area for the duration of this study. At baseline and 45 minutes after composition application, parallel-polarized digital images were taken of the entire face to document changes observed in pore size. Pore Size Reduction was evaluated using computer analysis of Parallel-Polarized images of the face.

[4] = tested on: tyrosinase; assay: Tyrosinase activity in lysates of treated B16 cells (DOPA, absorbance 490 nm); assay type: cell-based, murine; settings: pH 7.2, B16 cells 48 hours, activity at 3-hours, normalized for total protein
Procedure: THPED was also tested for its ability to induce tyrosinase activity in B16 cells by spectroscopic measuring of the final product, melanin. B16 cells were treated with THPED at different concentrations at pH 7.2 for 48 hours and cells were then lysed in 250 μl of PBS containing 1% Triton X-100 (Sigma, St. Louis, Mo.). The lysates were collected and centrifuged at 14,000 rpm for 5 minutes at 4° C. to pellet any insoluble material. Lysates (100 μl) were transferred to a 96 well assay plate (Corning Costar, San Diego, Calif.) and mixed with 100 μl of 0.1% (w/v) DOPA in PBS. The absorbance at 490 nm was then monitored from 0 to 12 hours using a VersaMax Plate Spectrophotometer (Molecular Devices, Sunnyvale, Calif.) and SoftMax Pro analytical software (Molecular Devices, Sunnyvale, Calif.). The tyrosinase activities were normalized for total protein using the BioRad Dc Protein Assay (Bio Rad, Hercules, Calif.).

Compound: CC(O)CN(CCN(CC(C)O)CC(C)O)CC(C)O (stereo not shown) [THPED, N,N,N′,N′-Tetrakis(2-hydroxypropyl)ethylenediamine]
- Mean +/− Std Dev of IL-1A Release ([1]; 2 hours before UV (70 kJ/m^2), 24 hours after): 357.3 ± 92.1 ng/mL
- inhibition at 0.5 % strength ([1]; Homo sapiens, 2 hours before UV, vs UV, Vehicle, read-out: Percent Inhibition of Skin Inflammation): 0%
- Pigmentation score ([2]; 0.01% (w/v)): 1
- Pigmentation score ([2]; 0.025% (w/v)): 2
- Pigmentation score ([2]; 0.05% (w/v)): 4
- % Of Pore Size Reduction over Placebo ([3]; single application, subject responders): 7.11%*
- greater pore reduction response than the placebo alone [3]: 19.4%
- % tyrosinase activity relative to untreated control ([4]; 0.01%): 104.15%
- % tyrosinase activity relative to untreated control ([4]; 0.025%): 167.39%
- % tyrosinase activity relative to untreated control ([4]; 0.05%): 201.90%
